What was measured:
Assay type in all cases: in vivo
[1] = test system: barnyardgrass (Echinochloa crus-galli); assay: Test A pre-/postemergence: barnyardgrass; conditions: for Barnyardgrass plant response rating: visual rating on 0 to 100 scale (0 no effect, 100 complete control), approximately ten days
Method in brief: (§1)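 Pre: directed soil spray after planting in loam + sand. Post: same formulation (non-phytotoxic solvent + surfactant) on 1–2-leaf plants, 2–10 cm. Greenhouse ~10 d; visual injury 0–100 vs untreated.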

[2] = test system: crabgrass, large (large crabgrass, Digitaria sanguinalis); assay: Test A pre-/postemergence: crabgrass, large; conditions: for Crabgrass, Large plant response rating: visual rating on 0 to 100 scale (0 no effect, 100 complete control), approximately ten days
Method in brief: as §1

[3] = test system: foxtail, giant (giant foxtail, Setaria faberii); assay: Test A pre-/postemergence: foxtail, giant; conditions: for Foxtail, Giant plant response rating: visual rating on 0 to 100 scale (0 no effect, 100 complete control), approximately ten days
Method in brief: as §1

[4] = test system: morningglory (Ipomoea spp.); assay: Test A pre-/postemergence: morningglory; conditions: for Morningglory plant response rating: visual rating on 0 to 100 scale (0 no effect, 100 complete control), approximately ten days
Method in brief: as §1

[5] = test system: pigweed (Amaranthus retroflexus); assay: Test A pre-/postemergence: pigweed; conditions: for Pigweed plant response rating: visual rating on 0 to 100 scale (0 no effect, 100 complete control), approximately ten days
Method in brief: as §1

[6] = test system: velvetleaf (Abutilon theophrasti); assay: Test A pre-/postemergence: velvetleaf; conditions: for Velvetleaf plant response rating: visual rating on 0 to 100 scale (0 no effect, 100 complete control), approximately ten days
Method in brief: as §1

[7] = test system: wheat (Triticum aestivum); assay: Test A pre-/postemergence: wheat; conditions: for Wheat plant response rating: visual rating on 0 to 100 scale (0 no effect, 100 complete control), approximately ten days
Method in brief: as §1

corn (Zea mays) = assay: Test A pre-/postemergence: corn; conditions: for Corn plant response rating: visual rating on 0 to 100 scale (0 no effect, 100 complete control), approximately ten days
Method in brief: as §1

rice (Oryza sativa) = assay: Test B flooded paddy: rice; conditions: Flood; 250 g ai/ha; applied to paddy water at 2-leaf stage; visually evaluated after 13 to 15 days
Method in brief: (§2)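 Response scored visually, 0–100 relative to controls, 13–15 days after the compound was applied into paddy water; plants were at the 2-leaf stage in pots kept flooded to 3 cm.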

[8] = test system: sedge, umbrella (small-flower umbrella sedge Cyperus difformis); assay: Test B flooded paddy: sedge, umbrella; conditions: Flood; 250 g ai/ha; applied to paddy water at 2-leaf stage; visually evaluated after 13 to 15 days
Method in brief: as §2

[9] = test system: ducksalad (Heteranthera limosa); assay: Test B flooded paddy: ducksalad; conditions: Flood; 250 g ai/ha; applied to paddy water at 2-leaf stage; visually evaluated after 13 to 15 days
Method in brief: as §2

[10] = test system: barnyardgrass (Echinochloa crus-galli); assay: Test B flooded paddy: barnyardgrass; conditions: Flood; 250 g ai/ha; applied to paddy water at 2-leaf stage; visually evaluated after 13 to 15 days
Method in brief: as §2

[11] = Postemergence, 125 g ai/ha, 0 to 100 scale, 0 is no effect, 100 is complete control
[12] = Preemergence, 125 g ai/ha, 0 to 100 scale where 0 is no effect and 100 is complete control
[13] = Preemergence, 500 g ai/ha, 0 to 100 scale (0 no effect, 100 complete control)

| Compound | Plant response rating, Barnyardgrass [1, 11] | Barnyardgrass plant response rating ([1]; Postemergence, 500 g ai/ha) | Plant response rating, Barnyardgrass [1, 12] | Plant response rating, Barnyardgrass [1, 13] | Plant response rating, Crabgrass, Large [2, 11] | Crabgrass, Large plant response rating ([2]; Postemergence, 500 g ai/ha) | Plant response rating, Crabgrass, Large [2, 12] | Plant response rating, Crabgrass, Large [2, 13] | Plant response rating, Foxtail, Giant [3, 11] | Foxtail, Giant plant response rating ([3]; Postemergence, 500 g ai/ha) | Plant response rating, Foxtail, Giant [3, 12] | Plant response rating, Foxtail, Giant [3, 13] | Plant response rating, Morningglory [4, 11] | Morningglory plant response rating ([4]; Postemergence, 500 g ai/ha) | Plant response rating, Morningglory [4, 12] | Plant response rating, Morningglory [4, 13] | Plant response rating, Pigweed [5, 11] | Pigweed plant response rating ([5]; Postemergence, 500 g ai/ha) | Plant response rating, Pigweed [5, 12] | Plant response rating, Pigweed [5, 13] | also measured |
| --- | --- | --- | --- | --- | --- | --- | --- | --- | --- | --- | --- | --- | --- | --- | --- | --- | --- | --- | --- | --- | --- |
| CC(C)c1nn(-c2ccc(F)cc2)nc1Cc1cccc(C(F)(F)F)c1 [Compound 150] | 0 | 0 | 0 | 0 | 0 | 20 | 0 | 0 | 0 | 0 | 0 | 0 | 0 | 0 | 0 | 0 | 10 | 50 | 0 | 0 | Plant response rating, Velvetleaf [6, 11]: 0; Velvetleaf plant response rating ([6]; Postemergence, 500 g ai/ha): 10; Plant response rating, Velvetleaf [6, 12]: 0; Plant response rating, Velvetleaf [6, 13]: 0; Plant response rating, Wheat [7, 11]: 0; Wheat plant response rating ([7]; Postemergence, 500 g ai/ha): 0; Plant response rating, Wheat [7, 12]: 0; Plant response rating, Wheat [7, 13]: 0; Plant response rating, Corn (corn (Zea mays); [11]): 0; Corn plant response rating (corn (Zea mays); Postemergence, 500 g ai/ha): 10; Plant response rating, Corn (corn (Zea mays); [12]): 0; Plant response rating, Corn (corn (Zea mays); [13]): 0; Plant response rating, Rice (0 to 100 scale, 0 is no effect, 100 is complete control) (rice (Oryza sativa)): 0; Plant response rating, Sedge, Umbrella (0 to 100 scale, 0 is no effect, 100 is complete control) [8]: 0; Plant response rating, Ducksalad (0 to 100 scale, 0 is no effect, 100 is complete control) [9]: 0; Plant response rating, Barnyardgrass (0 to 100 scale, 0 is no effect, 100 is complete control) [10]: 20 |
| CC(C)c1nn(-c2ccc(F)cc2)nc1Cc1ccnc(C(F)(F)F)c1 [Compound 151] | 10 | 20 | 0 | 0 | 10 | 30 | 0 | 10 | 10 | 30 | 0 | 20 | 40 | 70 | 0 | 0 | 60 | 80 | 10 | 60 | Plant response rating, Velvetleaf [6, 11]: 30; Velvetleaf plant response rating ([6]; Postemergence, 500 g ai/ha): 50; Plant response rating, Velvetleaf [6, 12]: 0; Plant response rating, Velvetleaf [6, 13]: 0; Plant response rating, Wheat [7, 11]: 0; Wheat plant response rating ([7]; Postemergence, 500 g ai/ha): 0; Plant response rating, Wheat [7, 12]: 0; Plant response rating, Wheat [7, 13]: 0; Plant response rating, Corn (corn (Zea mays); [11]): 10; Corn plant response rating (corn (Zea mays); Postemergence, 500 g ai/ha): 20; Plant response rating, Corn (corn (Zea mays); [12]): 0; Plant response rating, Corn (corn (Zea mays); [13]): 0; Plant response rating, Rice (0 to 100 scale, 0 is no effect, 100 is complete control) (rice (Oryza sativa)): 30; Plant response rating, Sedge, Umbrella (0 to 100 scale, 0 is no effect, 100 is complete control) [8]: 0; Plant response rating, Ducksalad (0 to 100 scale, 0 is no effect, 100 is complete control) [9]: 0; Plant response rating, Barnyardgrass (0 to 100 scale, 0 is no effect, 100 is complete control) [10]: 0 |
| O=C(c1ccnc(C(F)(F)F)c1)c1nn(-c2ccc(F)cc2)nc1F [Compound 158] | 0 | 0 | 0 | 0 | 0 | 20 | 0 | 0 | 0 | 0 | 0 | 0 | 0 | 10 | 0 | 0 | 10 | 80 | 0 | 0 | Plant response rating, Velvetleaf [6, 11]: 0; Velvetleaf plant response rating ([6]; Postemergence, 500 g ai/ha): 0; Plant response rating, Velvetleaf [6, 12]: 0; Plant response rating, Velvetleaf [6, 13]: 0; Plant response rating, Wheat [7, 11]: 0; Wheat plant response rating ([7]; Postemergence, 500 g ai/ha): 0; Plant response rating, Wheat [7, 12]: 0; Plant response rating, Wheat [7, 13]: 0; Plant response rating, Corn (corn (Zea mays); [11]): 0; Corn plant response rating (corn (Zea mays); Postemergence, 500 g ai/ha): 20; Plant response rating, Corn (corn (Zea mays); [12]): 0; Plant response rating, Corn (corn (Zea mays); [13]): 0; Plant response rating, Rice (0 to 100 scale, 0 is no effect, 100 is complete control) (rice (Oryza sativa)): 75; Plant response rating, Sedge, Umbrella (0 to 100 scale, 0 is no effect, 100 is complete control) [8]: 0; Plant response rating, Ducksalad (0 to 100 scale, 0 is no effect, 100 is complete control) [9]: 0; Plant response rating, Barnyardgrass (0 to 100 scale, 0 is no effect, 100 is complete control) [10]: 0 |

— patent US9302999B2, “Substituted triazoles as herbicides” (E. I. DU PONT DE NEMOURS AND COMPANY, priority 2012, dated 2016)
